Results: patent US12448388B2, “PRMT5 inhibitors and uses thereof” (Gilead Sciences, Inc., priority 2023, dated 2025)
Where two headings read alike, the source gives them in different places.

How the values were obtained:
[1] = system: HCT116 MTAP-deleted cell lines; assay: Cell viability assay (CellTiter-Glo, 7 days), HCT116 MTAP-deleted; type: cell-based; parameters: CC50 selectivity: unit not given beside the values
Method in brief: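 Each PRMT5 inhibitor was tested as a dose response alongside tool compounds on the same plate. Incubation ran 7 days at 37 °C under 5% CO2, after which CellTiter-Glo luminescence was recorded and CC50 calculated.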

[2] = system: Symmetric Di-methyl Arginine (SDMA) signal (PRMT5 inhibition) in HCT116 MTAP-deleted cells; assay: Symmetric di-methyl arginine image-based high content screen assay (SDMA assay), HCT116 MTAP-deleted; type: cell-based; conditions: for EC50: class symbols
Method in brief: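 Read-out is imaging of per-cell mean SDMA immunofluorescence (Alexa 488), with cells segmented by DAPI. Cells, MTAP-deleted or wild-type HCT116, were exposed to compound for 3 days at 37 °C before fixation. EC50 derived by 4-parameter non-linear logistic regression.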

[3] = Homo sapiens, HCT-116, cell viability assay, HCT116 MTAP-deleted, class symbols, read-out: CC50
[4] = HCT116 WT vs HCT116 MTAP-deleted
[5] = Homo sapiens, HCT-116, HCT116 MTAP-deleted
[6] = Homo sapiens, HCT-116, cell viability, HCT116 MTAP-deleted, class symbols, read-out: CC50
[7] = HCT116 WT versus HCT116 MTAP-deleted

Structure (SMILES)	CC50 [1, 3]	EC50 selectivity [2, 4]	EC50 [2, 5]	CC50 [1, 6]	EC50 selectivity [2, 7]	CC50 [1]	CC50 selectivity [1]	EC50 ([2]; HCT116 MTAP-deleted)
Nc1nc2cc(F)c(C(=O)N3CCC[C@@H]4Oc5cc(C(F)(F)C(F)(F)F)ncc5[C@@H]43)cc2n2cncc12 [Fg-40, (4-amino-7-fluoroimidazo[1,5-a]quinoxalin-8-yl)((4aS,9bS)-7-(perfluoroethyl)-3,4,4a,9b-tetrahydrofuro[3,2-b:4,5-c′]dipyridin-1(2H)-yl)methanone]	< 100 nM	92	≤ 1 nM	–	–	–	–	–
Nc1nc2cnc(C(=O)N3C[C@@H](F)C[C@@H]4Oc5cc(OC(F)(F)F)ccc5[C@@H]43)cc2n2cncc12 [Fg-44, (4-aminoimidazo[1,5-a]pyrido[3,4-e]pyrazin-8-yl)((3S,4aS,9bS)-3-fluoro-7-(trifluoromethoxy)-3,4,4a,9b-tetrahydrobenzofuro[3,2-b]pyridin-1(2H)-yl)methanone]	< 100 nM	119	≤ 1 nM	–	–	–	–	–
C[C@@H]1C[C@@H]2Cc3nc(C(F)(F)F)ccc3[C@@H]2N(C(=O)c2cc3c(cc2F)nc(N)c2cncn23)C1 (racemic) [Ff-321, Rac-(4-amino-7-fluoroimidazo[1,5-a]quinoxalin-8-yl)((4bR,7R,8aR)-7-methyl-2-(trifluoromethyl)-4b,6,7,8,8a,9-hexahydro-5H-cyclopenta[1,2-b:3,4-b′]dipyridin-5-yl)methanone]	–	–	1 to 5 nM	< 100 nM	67	–	–	–
Cc1ncn2c1c(N)nc1cnc(C(=O)N3CCC[C@@H]4Oc5cc(S(F)(F)(F)(F)F)ccc5[C@@H]43)cc12 [Ff-665, (4-amino-3-methylimidazo[1,5-a]pyrido[3,4-e]pyrazin-8-yl)((4aS,9bS)-7-(pentafluoro-16-sulfaneyl)-3,4,4a,9b-tetrahydrobenzofuro[3,2-b]pyridin-1(2H)-yl)methanone]	< 100 nM	39	≤ 1 nM	–	–	–	–	–
Nc1nc2cc(F)c(C(=O)N3CCC4CC3c3ccc(C(F)(F)F)cc34)cc2n2cncc12 (stereo not shown) [Ff-29, (4-amino-7-fluoroimidazo[1,5-a]quinoxalin-8-yl)(7-(trifluoromethyl)-1,3,4,5-tetrahydro-2H-1,5-methanobenzo[c]azepin-2-yl)methanone]	–	–	1 to 5 nM	100 to 1000 nM	308	–	–	–
C[C@H]1CN(C(=O)c2cc3c(cc2F)nc(N)c2cncn23)[C@H]2c3ccc(C(F)(F)C(F)(F)F)cc3C[C@H]2O1 [Fg-38, (4-amino-7-fluoroimidazo[1,5-a]quinoxalin-8-yl)((2S,4aS,9aR)-2-methyl-7-(perfluoroethyl)-2,3,9,9a-tetrahydroindeno[2,1-b][1,4]oxazin-4(4aH)-yl)methanone]	< 100 nM	31	1 to 5 nM	–	–	–	–	–
Nc1nc2cc(F)c(C(=O)N3CCO[C@@H]4Cc5cc(C(F)F)ccc5[C@@H]43)cc2n2cncc12 [Ff-167, (4-amino-7-fluoroimidazo[1,5-a]quinoxalin-8-yl)((4aS,9aR)-7-(difluoromethyl)-2,3,9,9a-tetrahydroindeno[2,1-b][1,4]oxazin-4(4aH)-yl)methanone]	–	–	1 to 5 nM	< 100 nM	44	–	–	–
C[C@H]1C[C@@H]2Oc3cc(C(F)(F)F)ccc3[C@@H]2N(C(=O)c2cc3c(cn2)nc(N)c2cncn23)C1 (single isomer, unassigned) [Ff-399]	< 100 nM	47	≤ 1 nM	–	–	–	–	–
Nc1nc2cc(F)c(C(=O)N(Cc3ccc(-c4cnn(C(F)(F)F)c4)cc3F)C34CC(C3)C4)cc2n2cncc12 [Ff-23, 4-amino-N-(bicyclo[1.1.1]pentan-1-yl)-7-fluoro-N-(2-fluoro-4-(1-(trifluoromethyl)-1H-pyrazol-4-yl)benzyl)imidazo[1,5-a]quinoxaline-8-carboxamide]	–	–	1 to 5 nM	< 100 nM	48	–	–	–
Cc1ncn2c1c(N)nc1cnc(C(=O)N3C[C@H](C)C[C@@H]4Oc5cc(OC(F)(F)F)ccc5[C@@H]43)cc12 [Ff-619, (4-amino-3-methylimidazo[1,5-a]pyrido[3,4-e]pyrazin-8-yl)((3R,4aS,9bS)-3-methyl-7-(trifluoromethoxy)-3,4,4a,9b-tetrahydrobenzofuro[3,2-b]pyridin-1(2H)-yl)methanone]	< 100 nM	58	1 to 5 nM	–	–	–	–	–
Cc1ncn2c1c(N)nc1cnc(C(=O)N3C[C@@H](F)C[C@@H]4Oc5cc(C(F)(F)F)ccc5[C@@H]43)cc12 [Ff-658, (4-amino-3-methylimidazo[1,5-a]pyrido[3,4-e]pyrazin-8-yl)((3S,4aS,9bS)-3-fluoro-7-(trifluoromethyl)-3,4,4a,9b-tetrahydrobenzofuro[3,2-b]pyridin-1(2H)-yl)methanone]	< 100 nM	124	1 to 5 nM	–	–	–	–	–
CN(C(=O)c1cc2c(cc1F)nc(N)c1cncn12)[C@@H]1COc2cc(-n3cnc(C(F)(F)F)n3)ccc21 [Ff-324, (S)-4-amino-7-fluoro-N-methyl-N-(6-(3-(trifluoromethyl)-1H-1,2,4-triazol-1-yl)-2,3-dihydrobenzofuran-3-yl)imidazo[1,5-a]quinoxaline-8-carboxamide]	–	–	1 to 5 nM	< 100 nM	53	–	–	–
CN(C(=O)c1cc2c(cc1F)nc(N)c1cncn12)[C@@H]1COc2cc(N3CCOCC3)ccc21 [Ff-144, (S)-4-amino-7-fluoro-N-methyl-N-(6-morpholino-2,3-dihydrobenzofuran-3-yl)imidazo[1,5-a]quinoxaline-8-carboxamide]	–	–	1 to 5 nM	< 100 nM	157	–	–	–
Nc1nc2cnc(C(=O)N3CCC4(CC4)[C@@H]4Oc5cc(OC(F)(F)F)ccc5[C@@H]43)cc2n2cncc12 [Ff-618, (4-aminoimidazo[1,5-a]pyrido[3,4-e]pyrazin-8-yl)((4aS,9bS)-7-(trifluoromethoxy)-2,3,4a,9b-tetrahydro-1H-spiro[benzofuro[3,2-b]pyridine-4,1′-cyclopropan]-1-yl)methanone]	< 100 nM	294	1 to 5 nM	–	–	–	–	–
Nc1nc2ccc(C(=O)N3CCC[C@@H]4Oc5cc(S(F)(F)(F)(F)F)ccc5[C@@H]43)cc2n2cncc12 [Ff-664, (4-aminoimidazo[1,5-a]quinoxalin-8-yl)((4aS,9bS)-7-(pentafluoro-16-sulfaneyl)-3,4,4a,9b-tetrahydrobenzofuro[3,2-b]pyridin-1(2H)-yl)methanone]	< 100 nM	79	≤ 1 nM	–	–	–	–	–
CN(C(=O)c1cc2c(cc1F)nc(N)c1cncn12)[C@@H]1COCc2cc(Br)ccc21 [Ff-14, (S)-4-amino-N-(7-bromoisochroman-4-yl)-7-fluoro-N-methylimidazo[1,5-a]quinoxaline-8-carboxamide]	–	–	≤ 1 nM	< 100 nM	241	–	–	–
Nc1nc2cc(F)c(C(=O)N3CCC[C@H]4OCc5cc(OC(F)F)ccc5[C@H]43)cc2n2cncc12 (single isomer, unassigned) [Ff-391]	< 100 nM	26	1 to 5 nM	–	–	–	–	–
Cc1ncn2c(N)nc3ccc(C(=O)N(Cc4ccc(C(F)(F)F)cn4)[C@H](C)c4ncccn4)cc3c12 [Fg-2, (R)-5-amino-1-methyl-N-(1-(pyrimidin-2-yl)ethyl)-N-((5-(trifluoromethyl)pyridin-2-yl)methyl)imidazo[1,5-c]quinazoline-9-carboxamide]	< 100 nM	39	1 to 5 nM	–	–	–	–	–
Nc1nc2cc(F)c(C(=O)N(Cc3ccc(C(F)(F)F)cn3)C34CC(C3)C4)cc2n2cncc12 [Ff-1, 4-amino-N-(bicyclo[1.1.1]pentan-1-yl)-7-fluoro-N-((5-(trifluoromethyl)pyridin-2-yl)methyl)imidazo[1,5-a]quinoxaline-8-carboxamide]	–	–	≤ 1 nM	< 100 nM	37	–	–	–
Nc1nc2cnc(C(=O)N3CCC[C@@H]4Oc5cc(S(F)(F)(F)(F)F)ccc5[C@@H]43)cc2n2cncc12 [Fg-42, (4-aminoimidazo[1,5-a]pyrido[3,4-e]pyrazin-8-yl)((4aS,9bS)-7-(pentafluoro-16-sulfaneyl)-3,4,4a,9b-tetrahydrobenzofuro[3,2-b]pyridin-1(2H)-yl)methanone]	–	57	–	–	–	< 100 nM	38	≤ 1 nM
Cc1ncn2c1c(N)nc1cnc(C(=O)N3CCC4(CC4)[C@@H]4Oc5cc(OC(F)(F)F)ccc5[C@@H]43)cc12 [Ff-617, (4-amino-3-methylimidazo[1,5-a]pyrido[3,4-e]pyrazin-8-yl)((4aS,9bS)-7-(trifluoromethoxy)-2,3,4a,9b-tetrahydro-1H-spiro[benzofuro[3,2-b]pyridine-4,1′-cyclopropan]-1-yl)methanone]	< 100 nM	274	1 to 5 nM	–	–	–	–	–
CN(C(=O)c1cc2c(cc1F)nc(N)c1cncn12)[C@@H]1COc2cc(-n3cc(C(F)(F)F)cn3)ccc21 [Ff-545, (S)-4-amino-7-fluoro-N-methyl-N-(6-(4-(trifluoromethyl)-1H-pyrazol-1-yl)-2,3-dihydrobenzofuran-3-yl)imidazo[1,5-a]quinoxaline-8-carboxamide]	< 100 nM	157	1 to 5 nM	–	–	–	–	–
Nc1nc2cc(F)c(C(=O)N(Cc3ccc(Cl)cc3F)C34CC(C3)C4)cc2n2cncc12 [Ff-6, 4-amino-N-(bicyclo[1.1.1]pentan-1-yl)-N-(4-chloro-2-fluorobenzyl)-7-fluoroimidazo[1,5-a]quinoxaline-8-carboxamide]	–	–	> 5 nM	100 to 1000 nM	71	–	–	–
